# Data taken from patent US20100003246A1, “Novel heterocyclic compounds and uses therof” (priority 2008, published 2010).
# Biological target: T1, b-Raf(V600E) (Homo sapiens, UniProt P15056, V600E)
# T1 construct: made in house
# Experiment: Raf/Mek Amplified Luminescence Proximity Homogeneous Assay (Alpha Screen), b-Raf(V600E)
# Type: biochemical
# Conditions: mutant b-Raf(V600E), read-out: mut-b-RAF (IC50 in uM)
# Outline: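 IC50 derived by non-linear regression from AlphaScreen luminescence of phospho-MEK (anti-p-MEK antibody). Reaction: ~4 pM b-Raf(V600E), ~10 nM kinase-dead biotinylated Mek, 60 min compound pre-incubation, then 3 h with ATP at room temperature in pH 7.5 Tris/MgCl2/DTT buffer, quenched with EDTA.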
# T1 sequence (P15056 whole entry V600E): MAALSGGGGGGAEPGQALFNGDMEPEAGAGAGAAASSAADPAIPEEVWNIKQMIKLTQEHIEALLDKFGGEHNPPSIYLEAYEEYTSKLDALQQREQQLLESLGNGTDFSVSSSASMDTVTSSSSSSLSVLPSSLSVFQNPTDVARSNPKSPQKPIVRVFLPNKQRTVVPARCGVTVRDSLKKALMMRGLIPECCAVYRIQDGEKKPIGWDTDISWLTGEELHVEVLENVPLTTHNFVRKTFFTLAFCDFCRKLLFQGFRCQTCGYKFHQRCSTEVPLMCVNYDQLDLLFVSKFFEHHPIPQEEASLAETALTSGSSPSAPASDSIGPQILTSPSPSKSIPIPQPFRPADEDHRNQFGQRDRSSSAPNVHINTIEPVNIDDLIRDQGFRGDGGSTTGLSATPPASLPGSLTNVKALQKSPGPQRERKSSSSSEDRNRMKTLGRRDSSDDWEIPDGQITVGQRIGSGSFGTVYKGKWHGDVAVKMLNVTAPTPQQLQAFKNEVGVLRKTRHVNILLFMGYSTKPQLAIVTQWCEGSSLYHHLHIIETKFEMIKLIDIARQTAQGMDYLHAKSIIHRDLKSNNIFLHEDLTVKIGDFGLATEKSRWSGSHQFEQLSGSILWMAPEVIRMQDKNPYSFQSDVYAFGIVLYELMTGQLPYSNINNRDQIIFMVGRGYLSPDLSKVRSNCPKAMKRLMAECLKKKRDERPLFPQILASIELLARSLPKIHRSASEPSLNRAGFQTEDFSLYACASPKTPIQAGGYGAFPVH
row,Structure (SMILES),IC50
1,COc1cc(-c2[nH]c(-c3ccc(OCCN(C)C)cc3)nc2-c2ccncc2)cnc1N [Compound 114],0.0064 µM
2,"Nc1ncc(-c2[nH]c(-c3ccc(F)cc3)nc2-c2ccncc2)cc1F [Compound 131, 3-fluoro-5-(2-(4-fluorophenyl)-4-(pyridin-4-yl)-1H-imidazol-5-yl)pyridin-2-amine]",0.174 µM
3,"COc1cc(-c2nc(-c3ccc(F)cc3)[nH]c2-c2ccnc(F)c2)cnc1N [Compound 111, 5-(2-(4-fluorophenyl)-5-(2-fluoropyridin-4-yl)-1H-imidazol-4-yl)-3-methoxypyridin-2-amine]",0.0292 µM
4,"COc1cc(-c2nc(-c3ccc(F)cc3)[nH]c2-c2ccnc(NC(C)C)n2)cnc1N [Compound 158, 4-(4-(6-amino-5-methoxypyridin-3-yl)-2-(4-fluorophenyl)-1H-imidazol-5-yl)-N-isopropylpyrimidin-2-amine]",0.0051 µM
5,"CCc1cc(-c2[nH]c(-c3ccc(F)cc3)nc2-c2ccncc2)cnc1N [Compound 105, 3-ethyl-5-(2-(4-fluorophenyl)-4-(pyridin-4-yl)-1H-imidazol-5-yl)pyridin-2-amine]",0.215 µM
6,"COc1cc(-c2oc(-c3ccccc3)nc2-c2ccncc2)cnc1N [Compound 89, 3-methoxy-5-(2-phenyl-4-(pyridin-4-yl)oxazol-5-yl)pyridin-2-amine]",0.0137 µM
7,"COc1cc(-c2[nH]c(-c3ccc(F)cc3)nc2-c2ccnc(NC3CCCCC3)n2)cnc1N [Compound 165, 4-(5-(6-amino-5-methoxypyridin-3-yl)-2-(4-fluorophenyl)-1H-imidazol-4-yl)-N-cyclohexylpyrimidin-2-amine]",0.0483 µM
8,"COc1cc(-c2nc(C(C)(C)C)[nH]c2-c2ccnc(N[C@@H]3CCN(C(C)=O)C3)n2)cnc1N [Compound 185, (R)-1-(3-(4-(4-(6-amino-5-methoxypyridin-3-yl)-2-tert-butyl-1H-imidazol-5-yl)pyrimidin-2-ylamino)pyrrolidin-1-yl)ethanone]",0.0032 µM
9,"COc1cc(-c2[nH]c(-c3ccc(F)cc3)nc2-c2ccnc(N[C@@H]3CCN(S(C)(=O)=O)C3)n2)cnc1N [Compound 199, (R)-4-(5-(6-amino-5-methoxypyridin-3-yl)-2-(4-fluorophenyl)-1H-imidazol-4-yl)-N-(1-(methylsulfonyl)pyrrolidin-3-yl)pyrimidin-2-amine]",0.015 µM
10,"COc1cc(-c2[nH]c(-c3ccccc3)nc2-c2ccn[nH]2)cnc1N [Compound 86, 3-methoxy-5-(2-phenyl-4-(1H-pyrazol-5-yl)-1H-imidazol-5-yl)pyridin-2-amine]",0.537 µM
11,"COc1cc(-c2nc(C(C)(C)C)[nH]c2-c2ccnc(N[C@@H]3CCN(S(C)(=O)=O)C3)n2)cnc1N [Compound 203, (R)-4-(4-(6-amino-5-methoxypyridin-3-yl)-2-tert-butyl-1H-imidazol-5-yl)-N-(1-(methylsulfonyl)pyrrolidin-3-yl)pyrimidin-2-amine]",0.0035 µM
12,"COc1cc(-c2[nH]c(-c3ccc(F)cc3)nc2-c2ccncc2Cl)cnc1N [Compound 94, 5-(4-(3-chloropyridin-4-yl)-2-(4-fluorophenyl)-1H-imidazol-5-yl)-3-methoxypyridin-2-amine]",0.0606 µM
13,"Nc1n[nH]c2ccc(-c3[nH]c(-c4ccccc4)nc3-c3ccncc3)cc12 [Compound 26, 5-(2-phenyl-4-(pyridin-4-yl)-1H-imidazol-5-yl)-1H-indazol-3-amine]",0.173 µM
14,"CNc1ncc(-c2nc(-c3ccccc3)[nH]c2-c2ccncc2)cn1 [Compound 83, N-methyl-5-(2-phenyl-5-(pyridin-4-yl)-1H-imidazol-4-yl)pyrimidin-2-amine]",0.197 µM
15,"CC(=O)Nc1n[nH]c2cc(-c3[nH]c(-c4ccccc4)nc3-c3ccncc3)ccc12 [Compound 28, N-(6-(2-phenyl-4-(pyridin-4-yl)-1H-imidazol-5-yl)-1H-indazol-3-yl)acetamide]",0.449 µM
16,"Fc1ccc(-c2nc(-c3ccncc3)c(-c3ccc4nccn4c3)[nH]2)cc1 [Compound 141, 6-(2-(4-fluorophenyl)-4-(pyridin-4-yl)-1H-imidazol-5-yl)imidazo[1,2-a]pyridine]",0.618 µM
17,"O=C1CCc2cc(-c3[nH]c(-c4ccccc4)nc3-c3ccncc3)cnc2N1 [Compound 47, 6-(2-phenyl-4-(pyridin-4-yl)-1H-imidazol-5-yl)-3,4-dihydro-1,8-naphthyridin-2(1H)-one]",0.885 µM

# The next compounds have a lower IC50 than those just listed; values first:
row,IC50,Structure (SMILES)
1,0.0016 µM,"COc1cc(-c2[nH]c(-c3cccc4ncccc34)nc2-c2ccncc2)cnc1N [Compound 169, 3-methoxy-5-(4-(pyridin-4-yl)-2-(quinolin-5-yl)-1H-imidazol-5-yl)pyridin-2-amine]"
2,0.0024 µM,"COCC(=O)N[C@@H](C)CNc1nccc(-c2[nH]c(-c3ccc(F)cc3)nc2-c2nc(OC)c(N)nc2C)n1 [Compound 252, (S)-N-(1-(4-(4-(5-amino-6-methoxy-3-methylpyrazin-2-yl)-2-(4-fluorophenyl)-1H-imidazol-5-yl)pyrimidin-2-ylamino)propan-2-yl)-2-methoxyacetamide]"
3,0.0001 µM,"COc1cc(Nc2nccc(-c3[nH]c(C(C)(C)C)nc3-c3cnc(N)c(OC)c3)n2)ccn1 [Compound 230, 4-(4-(6-amino-5-methoxypyridin-3-yl)-2-tert-butyl-1H-imidazol-5-yl)-N-(2-methoxypyridin-4-yl)pyrimidin-2-amine]"
4,0.0007 µM,"COc1cc(-c2nc(C(C)(C)C)[nH]c2-c2ccnc(NC[C@H](C)NC(=O)[C@H](C)OC)n2)cnc1N [Compound 241, (S)-N-((S)-1-(4-(4-(6-amino-5-methoxypyridin-3-yl)-2-tert-butyl-1H-imidazol-5-yl)pyrimidin-2-ylamino)propan-2-yl)-2-methoxypropanamide]"
5,0.0001 µM,"COc1cc(-c2[nH]c(-c3ccccc3)nc2-c2ccnc(NCCNC(C)=O)n2)cnc1N [Compound 67, N-(2-(4-(5-(6-amino-5-methoxypyridin-3-yl)-2-phenyl-1H-imidazol-4-yl)pyrimidin-2-ylamino)ethyl)acetamide]"
6,0.0002 µM,"Cc1c[nH]c2ncc(-c3[nH]c(-c4ccc(F)cc4)nc3-c3ccncc3)cc12 [Compound 182, 5-(2-(4-fluorophenyl)-4-(pyridin-4-yl)-1H-imidazol-5-yl)-3-methyl-1H-pyrrolo[2,3-b]pyridine]"
7,0.0009 µM,COc1cc(-c2[nH]c(-c3cccc4cccnc34)nc2-c2ccncc2)cnc1N [Compound 168]
8,0.0002 µM,"COc1cc(-c2nc(C(C)(C)C)[nH]c2-c2ccnc(Nc3ccc(Cl)c(C(F)(F)F)c3)n2)cnc1N [Compound 222, 4-(4-(6-amino-5-methoxypyridin-3-yl)-2-tert-butyl-1H-imidazol-5-yl)-N-(4-chloro-3-(trifluoromethyl)phenyl) pyrimidin-2-amine]"
9,0.0012 µM,"CCCNc1nccc(-c2nc(-c3ccc(F)cc3)[nH]c2-c2cnc(N)c(OC)c2)n1 [Compound 175, 4-(5-(6-amino-5-methoxypyridin-3-yl)-2-(4-fluorophenyl)-1H-imidazol-4-yl)-N-propylpyrimidin-2-amine]"
10,0.0007 µM,"Fc1ccc(-c2nc(-c3ccncc3)c(-c3cnc4[nH]cc(Br)c4c3)[nH]2)cc1 [Compound 151, 3-bromo-5-(2-(4-fluorophenyl)-4-(pyridin-4-yl)-1H-imidazol-5-yl)-1H-pyrrolo[2,3-b]pyridine]"
11,0.0009 µM,"COc1cc(-c2[nH]c(-c3ccc(C)cc3F)nc2-c2ccncc2)cnc1N [Compound 145, 5-(2-(2-fluoro-4-methylphenyl)-4-(pyridin-4-yl)-1H-imidazol-5-yl)-3-methoxypyridin-2-amine]"
12,0.0002 µM,"COc1ccc(CNc2nccc(-c3[nH]c(C(C)(C)C)nc3-c3cnc(N)c(OC)c3)n2)cc1 [Compound 192, 4-(4-(6-amino-5-methoxypyridin-3-yl)-2-tert-butyl-1H-imidazol-5-yl)-N-(4-methoxybenzyl)pyrimidin-2-amine]"
13,0.0002 µM,"COc1cccc(Nc2nccc(-c3[nH]c(-c4ccc(F)cc4)nc3-c3cnc(N)c(OC)c3)n2)c1 [Compound 153, 4-(4-(6-amino-5-methoxypyridin-3-yl)-2-(4-fluorophenyl)-1H-imidazol-5-yl)-N-(3-methoxyphenyl)pyrimidin-2-amine]"
14,0.0001 µM,"COc1cc(-c2nc(-c3ccc(F)cc3)[nH]c2-c2ccnc(NC[C@H](C)NS(C)(=O)=O)n2)cnc1N [Compound 195, (S)-N-(1-(4-(4-(6-amino-5-methoxypyridin-3-yl)-2-(4-fluorophenyl)-1H-imidazol-5-yl)pyrimidin-2-ylamino)propan-2-yl)methanesulfonamide]"
15,0.0011 µM,"COc1nc(-c2nc(C(C)(C)C)[nH]c2-c2ccnc(NC[C@H](C)NC(=O)OCC(C)C)n2)c(C)nc1N [Compound 258, (S)-isobutyl 1-(4-(4-(5-amino-6-methoxy-3-methylpyrazin-2-yl)-2-tert-butyl-1H-imidazol-5-yl)pyrimidin-2-ylamino)propan-2-ylcarbamate]"
16,0.0001 µM,"COCC(=O)NCCNc1nccc(-c2nc(-c3ccccc3)[nH]c2-c2cnc(N)c(OC)c2)n1 [Compound 68, N-(2-(4-(5-(6-amino-5-methoxypyridin-3-yl)-2-phenyl-1H-imidazol-4-yl)pyrimidin-2-ylamino)ethyl)-2-methoxyacetamide]"
17,0.001 µM,"COC(=O)N[C@@H](C)CNc1nccc(-c2[nH]c(C(C)(C)C)nc2-c2nc(OC)c(N)nc2C)n1 [Compound 260, (S)-methyl 1-(4-(4-(5-amino-6-methoxy-3-methylpyrazin-2-yl)-2-tert-butyl-1H-imidazol-5-yl)pyrimidin-2-ylamino)propan-2-ylcarbamate]"
18,0.0001 µM,"COc1cc(-c2nc(C(C)(C)C)[nH]c2-c2ccnc(NCC(F)(F)F)n2)cnc1N [Compound 213, 4-(4-(6-amino-5-methoxypyridin-3-yl)-2-tert-butyl-1H-imidazol-5-yl)-N-(2,2,2-trifluoroethyl)pyrimidin-2-amine]"
